Each compound was assayed on Human Heme Oxygenase-1 (HMOX-1) (assay: ELISA assay to measure human heme oxygenase-1 (HMOX-1) in HepG2 lysate). Conditions: human HMOX1 protein level in HepG2 lysate; * = average of 2 or more EC50 determinations; NA = Not Active; read-out: EC50.
Format: cell-based
Description: Example 143. ELISA Assay to Measure Human Heme Oxygenase-1 (HMOX-1) in HepG2 lysate
Reagents and Technical Notes:
ELISA capture antibody, standard HO-1, detection antibody and streptavidin HRP were supplied in the DuoSet IC Human total HO-1 ELISA from R&D systems (DYC3776-2). The substrate cocktail was KPL LumiGLO reserve Chemiluminescent Substrate (54-71-00). PBS was Corning Cellgro Cell Culture (21-040-CV). 10×PBS+0.05% tween20 (PBST) was from KPL.
All incubations of the plate were at room temperature (20° C.) in a closed drawer.
The ELISA plate was processed manually. All loadings were with a multichannel pipet. Plates were emptied by shaking into the sink and tapping onto paper towels to remove any remaining reagent. Plate washing was accomplished by loading all wells with PBS+0.05% tween20 (PBST) using a squirt bottle, shaking the PBST out and tapping the plate onto paper towels.
Preparation of the ELISA Plate:
• 1. anti-HO-1 capture antibody was 1440 μg/ml after reconstitution in PBS. This antibody was diluted to 8 μg/ml in PBS and 50 μl per well was added to a 384 well greiner “lumitrac 200” plate. Incubated overnight. • 2. The plate was emptied and 100 μl PBS+1% BSA added to all wells. Incubated 90 minutes at room temperature. Preparation of HepG2 Lysate: • 1. Cells were cultured in a 96-well tissue culture plate washed with PBS and then the plate frozen at −70° C. overnight. Plates were allowed to warm to ice temperature in an ice bucket. 20 μl of PBS, 0.5% Triton X100, 1 mM EDTA with 1×HALT™ protease inhibitors was added to each well and the plates incubated on ice for 1 hour. • 2. The lysates were frozen at −20° C. overnight. Measurement of HMOX1 (“HO-1”) • 1. In a polypropylene 384 well plate, human HO-1 (after reconstitution in PBS+0.5% Triton+1 mM EDTA) was serially diluted from 20 ng/ml 2-fold in PBS+0.5% triton-X100, 1 mM EDTA to make a 12-point standard curve including a zero point. • 2. In a polypropylene 96 well plate, HepG2 lysate was diluted 1 to 20 in Diluent #4 from DUOSET kit in which the assay standard is also diluted. • 3. The PBS+1% BSA was emptied from the ELISA plate and 30 μl of all samples and standards were added (duplicates recommended). The plate was incubated 90 minutes. • 4. Emptied plate and washed 4 times with PBST. • 5. Diluted HO-1 detection antibody to 200 ng/ml in PBS+1% BSA and added 30 μl to all wells. Incubated 90 minutes. • 6. Emptied plate and washed 4 times with PBST. • 7. Added 30 μl streptavidin HRP at 1/200 in PBS+1% BSA (stock streptavidin concentration not specified) to all wells. Incubated 30 minutes. • 8. Emptied plate and washed 4 times with PBST. • 9. Diluted Lumiglo reserve reagent two parts buffer to one part lumiglo substrate. Added 30 μl to all wells. Incubated 5 minutes. • 10. Measured chemiluminescence on spectramax M5 using 150 ms integration.
Table 1 below lists EC50 and fold changes of human HMOX1 protein levels relative to DMSO control upon treatment with representative compounds.

| EC50 [µM] | Compound |
| --- | --- |
| 1.3 | CCn1c(Nc2nc3ccc(OC(F)(F)F)cc3o2)nc2cc(C(=O)NCCOC)ccc21 [Example 85, 1-ethyl-N-(2-methoxyethyl)-2-((6-(trifluoromethoxy)benzo[d]oxazol-2-yl)amino)-1H-benzo[d]imidazole-5-carboxamide] |
| 2.3 | COCCNC(=O)c1ccc2c(c1)nc(Nc1nc3cc(OC(F)(F)F)ccc3[nH]1)n2C1CCOCC1 [Example 81, N-(2-methoxyethyl)-1-(tetrahydro-2H-pyran-4-yl)-2-((5-(trifluoromethoxy)-1H-benzo[d]imidazol-2-yl)amino)-1H-benzo[d]imidazole-5-carboxamide] |
| 2.2 | COCCNC(=O)c1ccc2c(c1)nc(Nc1nc3ccc(OC(F)(F)F)cc3o1)n2CCOC [Example 78, N,1-bis(2-methoxyethyl)-2-((6-(trifluoromethoxy)benzo[d]oxazol-2-yl)amino)-1H-benzo[d]imidazole-5-carboxamide] |
| 1.8 | COCCNC(=O)c1ccc2c(c1)nc(Nc1nc3cc(Cl)ccc3[nH]1)n2C [Example 83, 2-((5-chloro-1H-benzo[d]imidazol-2-yl)amino)-N-(2-methoxyethyl)-1-methyl-1H-benzo[d]imidazole-5-carboxamide] |
| 3.3 | Cn1c(Nc2nc3ccccc3o2)nc2cc(C(O)C(F)(F)F)ccc21 (centres unmarked) [Example 142, 1-(2-(benzo[d]oxazol-2-ylamino)-1-methyl-1H-benzo[d]imidazol-5-yl)-2,2,2-trifluoroethan-1-ol] |
| 4.1 | COCCn1c(Nc2nc3ccc(OC(F)(F)F)cc3o2)nc2cc(C(=O)O)ccc21 [Example 77, 1-(2-methoxyethyl)-2-((6-(trifluoromethoxy)benzo[d]oxazol-2-yl)amino)-1H-benzo[d]imidazole-5-carboxylic acid] |
| 4.5 | COCCNC(=O)c1ccc2c(c1)nc(Nc1nc3ccccc3[nH]1)n2C [Example 12, 2-((1H-benzo[d]imidazol-2-yl)amino)-N-(2-methoxyethyl)-1-methyl-1H-benzo[d]imidazole-5-carboxamide] |
| 3 | COCCNC(=O)c1ccc2c(c1)nc(Nc1nc3ccc(C4CC4)cc3o1)n2C [Example 116, 2-((6-cyclopropylbenzo[d]oxazol-2-yl)amino)-N-(2-methoxyethyl)-1-methyl-1H-benzo[d]imidazole-5-carboxamide] |
| 9.2 | CN1CCC(n2c(Nc3nc4ccc(OC(F)(F)F)cc4s3)nc3cc(C(=O)O)ccc32)CC1 [Example 3d, 1-(1-methylpiperidin-4-yl)-2-((6-(trifluoromethoxy)benzo[d]thiazol-2-yl)amino)-1H-benzo[d]imidazole-5-carboxylic acid] |
| 1.9 | COCCNC(=O)c1ccc2c(c1)nc(Nc1nc3ccc(OC(F)(F)F)cc3o1)n2C1CCOCC1 [Example 80, N-(2-methoxyethyl)-1-(tetrahydro-2H-pyran-4-yl)-2-((6-(trifluoromethoxy)benzo[d]oxazol-2-yl)amino)-1H-benzo[d]imidazole-5-carboxamide] |
| 5.4 | Cn1c(Nc2nc3cc(F)ccc3o2)nc2cc(C(=O)O)ccc21 [Example 66, 2-((5-fluorobenzo[d]oxazol-2-yl)amino)-1-methyl-1H-benzo[d]imidazole-5-carboxylic acid] |
| 4.5 | Cn1c(Nc2nc3cc(F)c(C(F)(F)F)cc3o2)nc2cc(C(=O)O)ccc21 [Example 107, 2-((5-fluoro-6-(trifluoromethyl)benzo[d]oxazol-2-yl)amino)-1-methyl-1H-benzo[d]imidazole-5-carboxylic acid] |
| 3.3 | CC(C)c1ccc2nc(Nc3nc4cc(C(=O)O)ccc4n3C)oc2c1 [Example 59, 2-((6-isopropylbenzo[d]oxazol-2-yl)amino)-1-methyl-1H-benzo[d]imidazole-5-carboxylic acid] |
| 3.8 | COCCNC(=O)c1ccc2c(c1)nc(Nc1nc3ccc(OC(F)(F)F)cc3s1)n2C1CCOCC1 [Example 2e, N-(2-methoxyethyl)-1-(tetrahydro-2H-pyran-4-yl)-2-((6-(trifluoromethoxy)benzo[d]thiazol-2-yl)amino)-1H-benzo[d]imidazole-5-carboxamide] |

Reference: patent US10766888B1, “HMOX1 inducers” (Mitobridge Inc., priority 2019, dated 2020)
